“And” between values parts separate entries of the source, which are not always exact repeats. Equal entries are not always repeated. Where two headings read alike, the source gives them in different places.
Experiments:
CYP2C8 = biological target: T1, CYP2C8 (Homo sapiens, UniProt P10632); assay: CYP2C8 inhibition in vitro; type: in vitro ADME
T1 sequence (P10632 1-490): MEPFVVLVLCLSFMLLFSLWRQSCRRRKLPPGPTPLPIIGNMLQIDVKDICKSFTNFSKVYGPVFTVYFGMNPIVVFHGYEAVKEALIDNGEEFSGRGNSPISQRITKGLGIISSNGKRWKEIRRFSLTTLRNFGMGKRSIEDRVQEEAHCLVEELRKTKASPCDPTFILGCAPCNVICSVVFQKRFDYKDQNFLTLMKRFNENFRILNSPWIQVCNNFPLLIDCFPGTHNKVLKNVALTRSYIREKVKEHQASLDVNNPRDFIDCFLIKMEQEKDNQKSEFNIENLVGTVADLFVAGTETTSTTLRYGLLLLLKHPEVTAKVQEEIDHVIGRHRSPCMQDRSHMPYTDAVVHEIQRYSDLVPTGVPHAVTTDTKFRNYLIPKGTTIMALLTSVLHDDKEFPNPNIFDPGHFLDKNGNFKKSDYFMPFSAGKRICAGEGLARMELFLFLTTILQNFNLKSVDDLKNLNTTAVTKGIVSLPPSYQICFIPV

[1] = Phase I single-dose study, moderate hepatic impairment versus normal hepatic function; type: in vivo, human; details: for AUC(0-inf) / AUC(0-t) / Cmax / Vd/F / half-life / Tmax / CL renal: both sexes, human, oral, 450 mg; for AUC(0-inf) / AUC(0-t) / Cmax / Vd/F / half-life / Tmax: plasma; for half-life: read-out: Elimination Half-life (t1/2) (converted); for Tmax: median; for CL renal: urine, read-out: CLr, renal clearance (converted)
Method: A phase I, open-label, parallel-group, single-dose study was conducted to evaluate the pharmacokinetics (PK) of 450 mg vadadustat administered in adults with moderate hepatic impairment (Child-Pugh Class B) versus those with normal hepatic function. The pharmacokinetic (pK) parameters of Compound 1 were characterized. Safety and tolerability were assessed throughout the study.
Inclusion criteria: participants were male and female adults between 18 and 70 years of age, with either normal hepatic function or moderate hepatic impairment based on the Child-Pugh classification (Child-Pugh Class B [score 7-9]). Moderate hepatic impairment was defined by the presence and severity of elevated bilirubin levels, decreased serum albumin levels, elevated international normalized ratios >2.20, ascites, and hepatic encephalopathy.
Pharmacokinetics. […] PK parameters Ae0-72, Fe %0-72, and CL, were estimated from the urine concentration-time profiles.
8 subjects with hepatic impairment and 8 matched subjects with normal hepatic function were enrolled in the study. All subjects received a single oral 450-mg dose of vadadustat on Day 1 and were required to fast for at least 10 hours before dosing and for 4 hours after dosing.

[2] = single 450 mg, Moderate Hepatic Impairment, mean ± SD
[3] = single 450 mg, Moderate Hepatic Impairment
[4] = single 450 mg, Normal Liver Function, mean ± SD
[5] = single 450 mg, Normal Liver Function

O=C(O)CNC(=O)c1ncc(-c2cccc(Cl)c2)cc1O [Compound 1, {[5-(3-chlorophenyl)-3-hydroxypyridine-2-carbonyl]amino}acetic acid]
inhibitory effect on CYP2C8 (CYP2C8): inhibitory effect
AUC(0-inf) ([1]; AUC0-inf, Geometric LSM, Total Compound 1, single 450 mg, Moderate Hepatic Impairment): 414 µg·h/mL
AUC(0-inf) ([1]; AUC0-inf, Geometric LSM, Total Compound 1, single 450 mg, Normal Liver Function): 394 µg·h/mL
AUC(0-t) ([1]; AUC0-last, Geometric LSM, Total Compound 1, single 450 mg, Moderate Hepatic Impairment): 410 µg·h/mL
AUC(0-t) ([1]; AUC0-last, Geometric LSM, Total Compound 1, single 450 mg, Normal Liver Function): 389 µg·h/mL
Cmax ([1]; Cmax, Geometric LSM, Total Compound 1, single 450 mg, Moderate Hepatic Impairment): 52 µg/mL
Cmax ([1]; Cmax, Geometric LSM, Total Compound 1, single 450 mg, Normal Liver Function): 50 µg/mL
Vd/F ([1]; Volume of distribution (Vd/F), Unbound Compound 1, single 450 mg, Moderate Hepatic Impairment, mean ± SD): 1490 ± 542 L
Vd/F ([1]; Volume of distribution (Vd/F), Unbound Compound 1, single 450 mg, Normal Liver Function, mean ± SD): 1330 ± 222 L
AUC(0-inf) ([1]; single 450 mg, Moderate Hepatic Impairment, mean ± SD, read-out: AUC0-inf, plasma, total): 436 ± 156 µg·h/mL
AUC(0-t) ([1]; single 450 mg, Moderate Hepatic Impairment, mean ± SD, read-out: AUC0-last, plasma, total): 432 ± 153 µg·h/mL
Cmax ([1]; single 450 mg, Moderate Hepatic Impairment, mean ± SD, read-out: Cmax, plasma, total): 53 ± 12 µg/mL
half-life [1, 2]: 7.8 h
Vd/F ([1]; single 450 mg, Moderate Hepatic Impairment, mean ± SD, read-out: Volume of distribution (Vd/F), total): 12.3 ± 4 L
Tmax [1, 3]: 2 h
AUC(0-inf) ([1]; single 450 mg, Normal Liver Function, mean ± SD, read-out: AUC0-inf, plasma, total): 397 ± 72 µg·h/mL
AUC(0-t) ([1]; single 450 mg, Normal Liver Function, mean ± SD, read-out: AUC0-last, plasma, total): 395 ± 72 µg·h/mL
Cmax ([1]; single 450 mg, Normal Liver Function, mean ± SD, read-out: Cmax, plasma, total): 53 ± 15 µg/mL
half-life [1, 4]: 5.8 h
Vd/F ([1]; single 450 mg, Normal Liver Function, mean ± SD, read-out: Volume of distribution (Vd/F), total): 9.6 ± 1.9 L
Tmax [1, 5]: 2.5 h
CL renal [1, 3]: 0.105 mL/min
CL renal [1, 5]: 0.122 mL/min
impact of moderate hepatic impairment on total systemic exposure ([1]; single 450 mg): no significant impact on total systemic exposure
AUC0-inf, Geometric LSM, Unbound Compound 1 [1, 3]: 3.47 µg·h/mL
AUC0-last, Geometric LSM, Unbound Compound 1 [1, 3]: 3.44 µg·h/mL
Ae0-72, cumulative amount excreted in urine up to 72 hours [1, 3]: 2.45 ± 1.611 mg
Cmax, Geometric LSM, Unbound Compound 1 [1, 3]: 0.433 µg/mL
Fe%0-72, cumulative fraction excreted in urine [1, 3]: 0.545% and 0.545 ± 0.3580%
AUC0-inf, Unbound Compound 1 [1, 2]: 3.78 ± 1.738 µg·h/mL
AUC0-last, Unbound Compound 1 [1, 2]: 3.75 ± 1.709 µg·h/mL
Clearance (CL/F), Unbound Compound 1 [1, 2]: 140 ± 56.02 L/h
Clearance (CL/F), total [1, 2]: 1.2 ± 0.4 L/h
Cmax, Unbound Compound 1 [1, 2]: 0.451 ± 0.1332 µg/mL
Elimination Half-life (t1/2) [1, 2]: 7.75 ± 2.5 h
AUC0-inf, Geometric LSM, Unbound Compound 1 [1, 5]: 2.79 µg·h/mL
AUC0-last, Geometric LSM, Unbound Compound 1 [1, 5]: 2.78 µg·h/mL
Ae0-72, cumulative amount excreted in urine up to 72 hours [1, 5]: 2.76 ± 1.214 mg
Cmax, Geometric LSM, Unbound Compound 1 [1, 5]: 0.360 µg/mL
Fe%0-72, cumulative fraction excreted in urine [1, 5]: 0.614% and 0.614 ± 0.2698%
AUC0-inf, Unbound Compound 1 [1, 4]: 2.91 ± 0.9049 µg·h/mL
AUC0-last, Unbound Compound 1 [1, 4]: 2.90 ± 0.9001 µg·h/mL
Clearance (CL/F), Unbound Compound 1 [1, 4]: 167 ± 49.10 L/h
Clearance (CL/F), total [1, 4]: 1.2 ± 0.3 L/h
Cmax, Unbound Compound 1 [1, 4]: 0.378 ± 0.1131 µg/mL
Elimination Half-life (t1/2) [1, 4]: 5.81 ± 1.4 h
serious AEs ([1]; single 450 mg, both groups): No serious AEs
dose excreted in the urine as Compound 1 ([1]; single 450 mg, both moderate hepatic impairment and normal hepatic function): < 1%

— patent US20230263786A1, “MODULATION OF DRUG-DRUG INTERACTIONS OF VADADUSTAT” (Akebia Therapeutics, Inc., priority 2020, published 2023)
